Reference: patent publication US20240027453A1, “METHOD FOR DETECTION AND QUANTITATIVE MONITORING OF INFECTIONS WITH HERPESVIRUSES” (The Trustees of Princeton University, priority 2020, published 2024)
Like-named read-outs stand apart in the source and are kept apart here.

Test system: HCMV
Assay type: cell-based
Settings: for UL47 (P16784) protein, numerical value of heatmap FIG. 6C / UL69 (P16749) protein, numerical value of heatmap FIG. 6C / UL70 (P17149) protein, numerical value of heatmap FIG. 6C / UL83 (P06725) protein, numerical value of heatmap FIG. 6C / UL132 (P69338) protein, numerical value of heatmap FIG. 6C / US15 (P09718) protein, numerical value of heatmap FIG. 6C / sp|P16810|IR12_HCMVA (P16810) protein, numerical value of heatmap FIG. 6C / DUT (P16824) protein, numerical value of heatmap FIG. 6C / TRM3 (P16732) protein, numerical value of heatmap FIG. 6C / TRX1 (P16783) protein, numerical value of heatmap FIG. 6C / TRX2 (P16728) protein, numerical value of heatmap FIG. 6C / UL24 (P16760) protein, numerical value of heatmap FIG. 6C / UL40 (P16780) protein, numerical value of heatmap FIG. 6C / UL49 (P16786) protein, numerical value of heatmap FIG. 6C / sp|P16808|IR10_HCMVA (P16808) protein, numerical value of heatmap FIG. 6C: LL
Experimental: In example herpesvirus PRM assay methods shown herein, cell pellets were lysed in 2% SDS, 100 mM NaCl, 0.5 mM EDTA, 50 mM Tris, pH 8.2, and 50 μg of protein was reduced and alkylated with 25 mM TCEP and 50 mM CAM respectively for 20 min at 70° C. Proteins were then precipitated via methanol chloroform precipitation (Wessel & Flugg, Anal Biochem. 138(1):141-143, 1984), resuspended in 50 mM HEPES, pH 8.2 and digested overnight with trypsin (50:1 protein:enzyme w/w ratio). Digested peptides were desalted by SDB-RPS StageTip as previously described (Lum et al., Cell Syst., 7(6):[…], 2018; Greco et al., Methods Mol Biol 1410:39-63, 2016; Federspiel & Cristea, Methods Mol Biol., 1977:115-143, 2019).
Peptides (1.0 μg on column) were analyzed by LC-MS/MS using a Dionex Ultimate 3000 UHPLC coupled online to an EASYSpray ion source and a Q Exactive HF. Peptides were separated on an EASYSpray C18 column (75 μm×25 cm) heated to 50° C. using a linear gradient of 5% B to 32% B over 60 min at a flow rate of 250 nL/min and were ionized at 1.7 kv. Mobile phase A consisted of 0.1% FA in H2O and mobile phase B consisted of 0.1% FA, 2.9% H2O in ACN.
The PRM method was controlled by a peptide inclusion list with retention time windows of 6 min for selected precursor ions.
The PRM assay was developed and analyzed using the open-source software Skyline (Maclean et al., Bioinformatics 26(7):966-968, 2010). Summed area under the curve of 3-4 transitions per peptide was used for quantitation. Targeted peptides were normalized to host protein loading control peptides. Peptide values for each sample were scaled to the average of each peptide across all runs. The average of multiple peptides was used as the inferred value for the protein measurement when more than one peptide was quantified (Federspiel et al., PLoS Biol. 17(9):e3000437. Doi: 10.1371/journal.pbio.3000437). PRM quantitation data were graphed using the Python Seaborn and Matplotlib libraries.
MRC5 primary human fibroblasts (HFs) (ATCC CCL-171) were used as the model system for HSV-1 and HCMV infections and were cultured in complete growth medium (DMEM supplemented with 10% fetal bovine serum and 1% penicillin-streptomycin antibiotics) at 37° C. and 5% CO2. iSLK.219 cells harboring latent KSHV (a gift from Dr. Britt Glaunsinger, University of California, Berkeley) were grown in complete growth medium supplemented with 500 μg/ml hygromycin (ThermoFisher Scientific, 10687010) at 37° C. and 5% CO2. All cells were used for experiments within a maximum of 10 passages.
Wild type HSV-1 strain 17+ (a gift from Beate Sodeik, Hannover Medical School, Hannover, Germany) was propagated as previously described (Diner et al., 2015). Briefly, PO stocks were generated by electroporating pBAC-HSV-1 into U-2 OS cells. […] In a similar manner, wild type HCMV strain AD169 was produced from BAC electroporation into HFs and working stocks were propagated by infecting HFs at a low level. In both cases, cell-associated virus was released by sonication, combined with supernatant virus, then concentrated by ultracentrifugation (20,000 rpm, 2 hours, 4° C. with SW28 swinging bucket rotor [Beckman Coulter]) over a 10% ficoll (HSV-1) or 20% sorbitol (HCMV) cushion. Virus stock titers were determined by plaque assay for HSV-1 or tissue culture infectious dose (TCID50) for HCMV and infections were performed at a multiplicity of infection (MOI) of 3.
12 hours prior to virus infection or reactivation, cells were treated with either the small molecule drug or DMSO/PBS control at an equivalent volume. […] For infection cycles lasting longer than 24 hours, small molecule drugs were re-added to the cell culture medium every 24 hours. Upon collection, cells were rinsed with PBS, scraped into a microcentrifuge tube, pelleted by centrifugation, and rinsed again with PBS.

## Nc1ccn(C[C@@H](CO)OCP(=O)(O)O)c(=O)n1 [CDV, cidofovir]
Timepoint 48
  UL47 (P16784) protein, numerical value of heatmap FIG. 6C: 0.03052
  UL69 (P16749) protein, numerical value of heatmap FIG. 6C: 0.2559
  UL70 (P17149) protein, numerical value of heatmap FIG. 6C: 0.3143
  UL83 (P06725) protein, numerical value of heatmap FIG. 6C: 0.03791
  UL132 (P69338) protein, numerical value of heatmap FIG. 6C: 0.1131
  US15 (P09718) protein, numerical value of heatmap FIG. 6C: 1.201
  sp|P16810|IR12_HCMVA (P16810) protein, numerical value of heatmap FIG. 6C: 0.2103
Timepoint 72
  DUT (P16824) protein, numerical value of heatmap FIG. 6C: 0.6275
  TRM3 (P16732) protein, numerical value of heatmap FIG. 6C: 0.4913
  TRX1 (P16783) protein, numerical value of heatmap FIG. 6C: 0.3363
  TRX2 (P16728) protein, numerical value of heatmap FIG. 6C: 0.3619
  UL24 (P16760) protein, numerical value of heatmap FIG. 6C: 0.3923
  UL40 (P16780) protein, numerical value of heatmap FIG. 6C: 0.7811
  UL47 (P16784) protein, numerical value of heatmap FIG. 6C: 0.4114
  UL49 (P16786) protein, numerical value of heatmap FIG. 6C: 0.5948
  UL69 (P16749) protein, numerical value of heatmap FIG. 6C: 0.6759
  UL70 (P17149) protein, numerical value of heatmap FIG. 6C: 0.743
  UL83 (P06725) protein, numerical value of heatmap FIG. 6C: 0.4276
  UL132 (P69338) protein, numerical value of heatmap FIG. 6C: 0.4516
  US15 (P09718) protein, numerical value of heatmap FIG. 6C: 0.8899
  sp|P16808|IR10_HCMVA (P16808) protein, numerical value of heatmap FIG. 6C: 0.2743
  sp|P16810|IR12_HCMVA (P16810) protein, numerical value of heatmap FIG. 6C: 0.6875
Timepoint 96
  DUT (P16824) protein, numerical value of heatmap FIG. 6C: 0.7823
  TRM3 (P16732) protein, numerical value of heatmap FIG. 6C: 0.7025
  TRX1 (P16783) protein, numerical value of heatmap FIG. 6C: 0.8409
  TRX2 (P16728) protein, numerical value of heatmap FIG. 6C: 0.8413
  UL24 (P16760) protein, numerical value of heatmap FIG. 6C: 0.7085
  UL40 (P16780) protein, numerical value of heatmap FIG. 6C: 0.7467
  UL47 (P16784) protein, numerical value of heatmap FIG. 6C: 0.7604
  UL69 (P16749) protein, numerical value of heatmap FIG. 6C: 0.9032
  UL70 (P17149) protein, numerical value of heatmap FIG. 6C: 0.8327
  UL83 (P06725) protein, numerical value of heatmap FIG. 6C: 1.027
  UL132 (P69338) protein, numerical value of heatmap FIG. 6C: 0.6887
  US15 (P09718) protein, numerical value of heatmap FIG. 6C: 0.6108
  sp|P16808|IR10_HCMVA (P16808) protein, numerical value of heatmap FIG. 6C: 0.6859
  sp|P16810|IR12_HCMVA (P16810) protein, numerical value of heatmap FIG. 6C: 0.5726
Timepoint 120
  DUT (P16824) protein, numerical value of heatmap FIG. 6C: 1.034
  TRM3 (P16732) protein, numerical value of heatmap FIG. 6C: 0.9855
  TRX1 (P16783) protein, numerical value of heatmap FIG. 6C: 1.114
  TRX2 (P16728) protein, numerical value of heatmap FIG. 6C: 1.493
  UL24 (P16760) protein, numerical value of heatmap FIG. 6C: 1.171
  UL40 (P16780) protein, numerical value of heatmap FIG. 6C: 0.9491
  UL47 (P16784) protein, numerical value of heatmap FIG. 6C: 0.9878
  UL49 (P16786) protein, numerical value of heatmap FIG. 6C: 0.6463
  UL69 (P16749) protein, numerical value of heatmap FIG. 6C: 1.467
  UL70 (P17149) protein, numerical value of heatmap FIG. 6C: 1.255
  UL83 (P06725) protein, numerical value of heatmap FIG. 6C: 1.677
  UL132 (P69338) protein, numerical value of heatmap FIG. 6C: 0.8677
  US15 (P09718) protein, numerical value of heatmap FIG. 6C: 0.4974
  sp|P16808|IR10_HCMVA (P16808) protein, numerical value of heatmap FIG. 6C: 0.9054
  sp|P16810|IR12_HCMVA (P16810) protein, numerical value of heatmap FIG. 6C: 0.762
Early time points
  levels of HCMV IE and E proteins: decreased levels
